Structures can show the parent of a compound that is named as a salt. Where two headings read alike, the source gives them in different places.
Experiments:
Assay type in all cases: cell-based
HBV = HBV DNA release into supernatant of transduced HBV2.2.15 cells, with or without antivirals; details: compound 1 μM, relative to untreated N.S. sgRNA cells, average ± SD; for inhibition at 1 µM: Hepatitis B virus
Description: HepAD38 or HBV2.2.15 cells were transduced with lentiviral vectors expressing a puromycin resistance gene as well as Spy Cas9 and an sgRNA, as described above, at 85-90% confluency after growth in medium lacking Tet for 48 h, to ensure expression of HBV mRNAs and DNA. Beginning at 48 h post-transduction, cells were selected in 4 μg/ml puromycin (Life Technologies) for 10 days to eliminate any non-transduced cells. Supernatant media and cells were then harvested for ELISA and real-time PCR assays. Control cells including non-transduced HepAD38 cells were included as positive controls for HBV replication (in medium lacking Tet) or virtual absence of HBV replication (in medium containing Tet). Non-transduced HBV 2.2.15 cells were included as a control in experiments where relevant.
On day 7, total DNA was purified from supernatant using a commercially available kit (DNeasy Blood & Tissue kit, Qiagen). The HBV DNA was amplified in a real-time PCR assay using the AB 7900HT sequence detection system (Applied Biosystems) or the LightCycler 480 (Roche) as described by Stuyver et al. (2002). All samples were tested in duplicate. The concentration of compound that inhibited HBV DNA replication by 50% (EC50) or 90% (EC90) was determined by linear regression. HBV log viral reduction was also determined.
After transduction with Cas9/sgRNA expressing lentiviral constructs and selection, we observed that extracellular levels of HBV DNA were suppressed by ˜98%, ˜80%, and ˜90%, respectively, by the RT, surface Ag, and core specific Cas9/sgRNA combinations (Table 1).

[1] = test system: HPV-18 E6 or E7 gene target; assay: FLuc indicator assay in 293T cells, Spy Cas9 sgRNAs expressed from U6 or tRNA promoters; details: Spy Cas9, 72 h, promoter driving the sgRNA varied
From the text: (§1) Human tRNA sequences were obtained from the Genomic tRNA database and the MHV tRNA-7 sequence was obtained from Bogerd et al. 2010. (Mol. Cell 37, p135-142, 2010). To generate a tRNA-sgRNA expression construct, overlapping oligonucleotides were assembled to create a tRNA fused to an sgRNA scaffold and a pol III termination signal. Between the tRNA and the sgRNA scaffold, two BsmBI or BbsI sites were incorporated to allow for the insertion of variable targeting sequences. tRNA-sgRNA cassettes were then cloned into Cas9 expression vectors pCMVSau (discussed more fully below), pCMVNme, or pX330 (Addgene, plasmid #42230) expressing S. aureus, N. meningitidis, or S. pyogenes Cas9, respectively. In the case of pX330 the U6 promoter was exchanged for the tRNA-sgRNA cassette.
(§2) Reporter assays with 293T cells were performed by using the calcium phosphate transfection method. Briefly, 293T cells were plated at ˜1.25×10^5 cells per well in 12-well plates and transfected with a 4:1 ratio of the RGN expression plasmid to the FLuc-based indicator plasmid as well as 10 ng of a RLuc plasmid. Transfected 293T cells were then harvested 72 hours post transfection in Passive Lysis Buffer (Promega) and assayed for both FLuc and RLuc activity (Promega Dual-Luciferase Reporter Assay System) with RLuc serving as an internal control and normalization factor.
Initially we generated predicted fusion transcripts consisting of a human glutamine tRNA (SEQ ID NO: 41), a human histidine tRNA (SEQ ID NO: 44) or an MHV68 tRNA (M1-7; SEQ ID NO: 50)) linked to Spy Cas9 sgRNAs specific for a target DNA sequence derived either from the human papillomavirus serotype 18 (HPV-18) E6 or E7 gene (SEQ ID NO: 8 and 10, respectively), as described above. Indicator plasmids consisting of these viral target sequences linked to the FLuc gene, constructed as described above, were then co-transfected into 293T cells along with a plasmid encoding Spy Cas9, plasmids encoding each of the tRNA promoters, or the U6 promoter, linked to the same sgRNA and finally a RLuc-based internal control plasmid. Cells were harvested at 72 h post-transfection and FLuc and RLuc levels determined.

HSV-1 ICP0 gene = assay: FLuc indicator assay in 293T cells, Sau Cas9 sgRNA expressed from various tRNAs; details: Sau Cas9, identical HSV-1 ICP0 sgRNA (SEQ ID NO: 16), tRNA promoter varied
From the text: as §1, §2
As such Sau encodes a promising Cas9 gene for potential use in AAV vectors. To analyze whether we could also produce active Sau sgRNAs using tRNA promoters, we expressed the identical Sau sgRNA, specific for a target within the HSV-1 ICP0 gene (SEQ ID NO: 16), using a wide range of human tRNAs. […] The reason for the lower efficiency of processing seen with all of these tRNA:sgRNA fusions is currently unclear, but could relate to the single invariant sgRNA sequence used in this experiment.

[2] = HBV2.2.15 cells expressing Cas9 and HBV RT sgRNA, read-out: Percent inhibition of HBV DNA release into the supernatant medium, HBV RT sgRNA
[3] = HBV2.2.15 cells expressing Cas9 and HBV core sgRNA, read-out: Percent inhibition of HBV DNA release into the supernatant medium, HBV core sgRNA
[4] = HBV2.2.15 cells expressing Cas9 and HBV surface sgRNA, read-out: Percent inhibition of HBV DNA release into the supernatant medium, HBV surface sgRNA
[5] = HBV2.2.15 cells expressing Cas9 and N.S. sgRNA, triplicate, read-out: Percent inhibition of HBV DNA release into the supernatant medium, N.S. sgRNA

Work on `Nc1ccn([C@@H]2CS[C@H](CO)O2)c(=O)n1` [3TC, lamivudine] yielded an inhibition at 1 µM (HBV; [2]) of 99.1 ± 0.03%, an inhibition at 1 µM (HBV; [3]) of 97.1 ± 0.5% and an inhibition at 1 µM (HBV; [4]) of 96.3 ± 0.1%. For the same molecule, the inhibition at 1 µM (HBV; [5]) was 61.4 ± 6.2%.

`C=C1[C@H](CO)[C@@H](O)C[C@@H]1n1cnc2c(=O)[nH]c(N)nc21` [ETV, entecavir] showed an inhibition at 1 µM (HBV; [2]) of 98.5 ± 1%, an inhibition at 1 µM (HBV; [3]) of 97.9 ± 0.6% and an inhibition at 1 µM (HBV; [4]) of 97.6 ± 1.1%. It also gave an inhibition at 1 µM (HBV; [5]) of 78.3 ± 7.9%.

With `COC(=O)C1=C(CN2CCOCC2)NC(c2ccccn2)=NC1c1ccc(F)cc1Cl` (stereo not shown) [HAP12, heteroaryldihydropyrimidine] the “Percent inhibition of HBV DNA release into the supernatant medium, HBV RT sgRNA” value (HBV; HBV2.2.15 cells expressing Cas9 and HBV RT sgRNA) was 97.5 ± 0.7%, the “Percent inhibition of HBV DNA release into the supernatant medium, HBV core sgRNA” value (HBV; HBV2.2.15 cells expressing Cas9 and HBV core sgRNA) was 97.6 ± 0.1% and the “Percent inhibition of HBV DNA release into the supernatant medium, HBV surface sgRNA” value (HBV; HBV2.2.15 cells expressing Cas9 and HBV surface sgRNA) was 98.0 ± 0.3%. For the same molecule, the “Percent inhibition of HBV DNA release into the supernatant medium, N.S. sgRNA” value (HBV; HBV2.2.15 cells expressing Cas9 and N.S. sgRNA, triplicate) was 77.5 ± 5.2%.

Work on `CC(C)OC(=O)OCOP(=O)(CO[C@H](C)Cn1cnc2c(N)ncnc21)OCOC(=O)OC(C)C` [TDF, tenofovir disoproxil fumarate] yielded an inhibition at 1 µM (HBV; [2]) of 98.9 ± 0.2%, an inhibition at 1 µM (HBV; [3]) of 97 ± 0.3% and an inhibition at 1 µM (HBV; [4]) of 95.9 ± 0.7%. For the same molecule, the inhibition at 1 µM (HBV; [5]) was 68.1 ± 1.5%.

B1: U6 promoter: U6 pol III promoter, ~254 bp, SEQ ID NO: 51, driving sgRNA transcription (nucleic acid)
DNA: TCTAGAGAGGGCCTATTTCCCATGATTCCTTCATATTTGCATATACGATACAAGGCTGTTAGAGAGATAATTGGAATTAATTTGACTGTAAACACAAAGATATTAGTACAAAATACGTGACGTAGAAAGTAATAATTTCTTGGGTAGTTTGCAGTTTTAAAATTATGTTTTAAAATGGACTATCATATGCTTACCGTAACTTGAAAGTATTTCGATTTCTTGGCTTTATATATCTTGTGGAAAGGACGAAACACC
modifications: Synthetic U6 Promoter
B1 was tested, and the “knockdown of E6- and E7-based FLuc indicator constructs” value [1] was “effective and comparable knockdown”.

B2: tRNAGLN: human glutamine tRNA promoter (SEQ ID NO: 41) fused to sgRNA (nucleic acid)
DNA: GGTTCCATGGTGTAATGGTTAGCACTCTGGACTCTGAATCCAGCGATCCGAGTTCAAATCTCGGTGGAACCT
modifications: expressed or natural sequence
B2 was tested, and the “knockdown of E6- and E7-based FLuc indicator constructs” value [1] was “effective and comparable knockdown” and the “knockdown of FLuc indicator” value (HSV-1 ICP0 gene) was “strong knockdown”.

B3: tRNAMHV-7: MHV68 tRNA promoter (SEQ ID NO: 50) fused to sgRNA (nucleic acid)
DNA: GCCAGGGTAGCTCAATTGGTAGAGCATCAGGCTAGTATCCTGTCGGTTCCGGTTCAAGTCCGGGCCCTGGTT
modifications: expressed or natural sequence
With B3 the “knockdown of E6- and E7-based FLuc indicator constructs” value [1] was “effective and comparable knockdown”.

B4: tRNAHIS: human histidine tRNA promoter (SEQ ID NO: 44) fused to sgRNA (nucleic acid)
DNA: GCCGTGATCGTATAGTGGTTAGTACTCTGCGTTGTGGCCGCAGCAACCTCGGTTCGAATCCGAGTCACGGCA
modifications: expressed or natural sequence
In the case of B4, the “knockdown of E6- and E7-based FLuc indicator constructs” value [1] is reported as “slightly less effective”.

B5: tRNAGLN2: human tRNA promoter, SEQ ID NO: 45, fused to sgRNA (nucleic acid)
DNA: B2 DNA
modifications: expressed or natural sequence
With B5 the “knockdown of FLuc indicator” value (HSV-1 ICP0 gene) was “strong knockdown”.

B6: tRNAGLU: human tRNA promoter, SEQ ID NO: 46, fused to sgRNA (nucleic acid)
DNA: TCCCTGGTGGTCTAGTGGTTAGGATTCGGCGCTCTCACCGCCGCGGCCCGGGTTCGATTCCCGGTCAGGGAA
modifications: expressed or natural sequence
B6 was tested, and the “knockdown of FLuc indicator” value (HSV-1 ICP0 gene) was “strong knockdown”.

B7: tRNACYS: human tRNA promoter, SEQ ID NO: 48, fused to sgRNA (nucleic acid)
DNA: GGGGGTATAGCTCAGGGGTAGAGCATTTGACTGCAGATCAAGAGGTCCCCAGTTCAAATCTGGGTGCCCCCT
modifications: expressed or natural sequence
B7 was tested, and the “knockdown of FLuc indicator” value (HSV-1 ICP0 gene) was “readily detectable knockdown”.

B8: tRNATYR: human tRNA promoter, SEQ ID NO: 49, fused to sgRNA (nucleic acid)
DNA: GTCAGTGTTGCACAACGGTTAAGTGAAGAGGCTGTAAACCCAGACTGGATGGGTTCAATTCCCATCTCTGCCG
modifications: expressed or natural sequence
With B8 the “knockdown of FLuc indicator” value (HSV-1 ICP0 gene) was “little or no detectable knockdown”.
